Data taken from patent US20180360964A1, “PHARMACEUTICAL COMPOSITION AND A METHOD FOR PRODUCING THEREOF” (priority 2017, published 2018).
One block for each molecule: values may come before it.

Experiments:
[1] = Interaction efficiency of drugs with apatite-based matrix (HPLC); format: physicochemical; parameters: concentration or dose not given beside the values; settings: for Interaction efficiency (%) of each drug with apatite-based matrix: Table 1, mean±SD, triplicate
Description: Apatite-based matrix as prepared above was allowed to interact with three types of drugs including cyclophosphamide (Cyp), methotrexate (Mtx) and 5-fluorouracil (5-FU) to form complexes. The complexes were then centrifuged at 13,000 rpm for 15 min and supernatant was discarded without disturbing the pellet. 100 μL of media was added to pellet to form a suspension and the suspension was used to perform high performance liquid chromatography (HPLC) analysis to estimate the concentration of drugs that could be adsorbed to the apatite-based matrix and also to evaluate the interaction efficiency of drugs with apatite-based matrix. The concentration of the drugs present in the supernatant was calculated from the peak area, using the standard curves. Data were represented as interaction efficiency (%) of drugs with apatite-based matrix, calculated using the following formula: […]
Where [X]free drug and [X]CA-drug are the concentrations of free drug and drug-loaded apatite-based matrix in the supernatant calculated form the standard curves and [X]initial is the total concentration of drugs used to perform HPLC or the total concentration initially mixed for preparation of apatite-drug formulations. Each experiment was done in triplicate and shown as mean±SD.
(7) Ca^2+ and Sr^2+ Effects of Ca^2+ and Sr^2+ on apatite-based matrix formation were analysed by adding exogenous CaCl2 and SrCl2 in apatite-based matrix fabrication respectively, while keeping other salts being constant. The size of the apatite-based matrix formed with exogenous CaCl2 and SrCl2 were measured, followed by evaluation on the interaction efficiency (%) of apatite-based matrix with drugs which is indicated in Table 2.

[2] = Cellular uptake of Dox-loaded CA NPs and CMCA NPs; format: cell-based
From the text: Further, the interaction between CMCA NP and the drug i.e. doxorubicin (denoted briefly as Dox) was studied by comparing the size and binding affinity of CA NP and CMCA NP that were loaded with Dox. The positively charged DOX might bind electrostatically with negatively charged domains (rich in bicarbonate, phosphate or citrate) on CMCA NP and CA NP, causing the net charge of the DOX-loaded CMCA NPs and CA NPs more electropositive than that of the free NPs, as shown in FIGS. 28 (b) and (d). […] In addition, the evaluation on cellular uptake of Dox-loaded CA NPs and CMCA NPs was performed after 1 hour and 4 hours of treatment.

[3] = test system: MCF7 cell line; experiment: Time-dependent cellular uptake by HPLC; format: cell-based
Description: HPLC was performed to determine time-dependent cellular uptake (%) of pharmaceutical composition and also drug-loaded unmodified apatite-based matrix in MCF7 cell line. Apatite-based matrix was formulated with different Ca^2+ concentrations (7 mM, 8 mM and 9 mM) and 20 uM of drug. Free drug (20 uM) was used as control.

[4] = Concentration of detected drug accumulated in tumour after intravenous delivery; format: in vivo, mouse; settings: gemcitabine accumulated in tumour, 4T1-induced breast tumour mice
Description: 4T1 cells were inoculated subcutaneously on the mammary pad of mice. […] The injections were intravenously administered twice within an interval of 3 days to a 4T1 cancer cells-induced syngeneic mouse model of breast cancer. Measurements on tumour volume at day 8, 10, 12, 14, 16, 18, 20 and 22 were taken. The concentration of detected drug in tumour were also measured, followed by observation on bio-distribution of drugs in each organ. Six mice per group were used and data were represented as mean±SD of tumour volume.

SMILES: O=P1(N(CCCl)CCCl)NCCCO1 (stereo not drawn) [Cyp, cyclophosphamide]
Interaction efficiency (%) of each drug with apatite-based matrix [1]: 13.10 ± 5.47% | Interaction efficiency (%) of each drug with the apatite-based matrix ([1]; matrix formed with CaCl2): 13.10 ± 5.47% | Interaction efficiency (%) of each drug with the apatite-based matrix ([1]; matrix formed with SrCl2): 11.19 ± 8.16%

SMILES: COc1cccc2c1C(=O)c1c(O)c3c(c(O)c1C2=O)C[C@@](O)(C(=O)CO)C[C@@H]3O[C@H]1C[C@H](N)[C@H](O)[C@H](C)O1 [DOX, doxorubicin]
% Cellular uptake 1 hour of treatment ([2]; DOX 1 μM): 22.4% ± 1.73 | % Cellular uptake 4 hours of treatment ([2]; DOX 1 μM): 31.71% ± 5.92 | % Cellular uptake 1 hour of treatment ([2]; DOX 5 μM): 24.75% ± 0.14 | % Cellular uptake 4 hours of treatment ([2]; DOX 5 μM): 32.07% ± 0.82

SMILES: CC(C)(C#N)c1cc(Cn2cncn2)cc(C(C)(C)C#N)c1 [Free anastrozole, anastrozole]
cellular uptake (%) ([3]; anastrozole 20 uM, 1 h): 18.5% ± 2.4 | cellular uptake (%) ([3]; anastrozole 20 uM, 4 h): 47.75% ± 2.3 | cellular uptake (%) ([3]; anastrozole 20 uM, 24 h): 89.5% ± 3

Continued, in another order:

Interaction efficiency (%) of each drug with apatite-based matrix [1]: 0% | Interaction efficiency (%) of each drug with apatite-based matrix ([1]; listed as 5-fluorouracil (5-FU)): did not show any affinity | Interaction efficiency (%) of each drug with the apatite-based matrix ([1]; matrix formed with CaCl2): 0% | Interaction efficiency (%) of each drug with the apatite-based matrix ([1]; matrix formed with SrCl2): 1.21 ± 0.56%
SMILES: O=c1[nH]cc(F)c(=O)[nH]1 [5-FU, 5-fluorouracil]

Detected Drug Concentration (ng/ml) [4]: 27,03333 ng/ml
SMILES: Nc1ccn([C@@H]2O[C@H](CO)[C@@H](O)C2(F)F)c(=O)n1 [Free gemcitabine, gemcitabine]
cellular uptake (%) ([3]; gemcitabine 20 uM, 1 h): 30.5% ± 1.2 | cellular uptake (%) ([3]; gemcitabine 20 uM, 4 h): 50.75% ± 2.3 | cellular uptake (%) ([3]; gemcitabine 20 uM, 24 h): 100%

Interaction efficiency (%) of each drug with apatite-based matrix [1]: 1.73 ± 0.85% | Interaction efficiency (%) of each drug with the apatite-based matrix ([1]; matrix formed with CaCl2): 1.73 ± 0.85% | Interaction efficiency (%) of each drug with the apatite-based matrix ([1]; matrix formed with SrCl2): 27.76 ± 5.62%
SMILES: CN(Cc1cnc2nc(N)nc(N)c2n1)c1ccc(C(=O)N[C@@H](CCC(=O)O)C(=O)O)cc1 [Mtx, methotrexate]
